From patent US20220031849A1, “NANOPARTICLE ENCAPSULATION TO TARGET G PROTEIN-COUPLED RECEPTORS IN ENDOSOMES” (TAKEDA PHARMACEUTICAL COMPANY LIMITED, priority 2018, published 2022)
Ends that are not written are not given here.

Experiments:
HEK-293 cells = test: Uptake and disassembly of Coumarin 153 loaded nanoparticles; format: cell-based; details: 30 min pre-incubation with inhibitor
Source text: The uptake and disassembly of DIPMA nanoparticles loaded with Coumarin153 (DIPMA-CO), which emits in an aqueous environment but not in the hydrophobic core, were examined by high content imaging (confocal microscopy).
Uptake and disassembly of nanoparticles in HEK-293 cells. Coumarin 153 is a solvatochromic dye that fluoresces only in polar solvents, allowing detection of the release of Coumarin loaded in the core of nanoparticles observed as the appearance of Coumarin fluorescence in intact cells. nanoparticles were self-assembled using 0.5 mg of Coumarin 153 per mg of DIPMA polymer (DIPMA-CO). HEK-293 cells were pre-incubated for 30 min with vehicle (Hank's Balanced Salt Solution, HBSS), dynamin inhibitor (Dyngo4a, Dy4, 30 μM), clathrin inhibitor (Pitstop, PS2, 30 μM), vacuolar H^+ATPase inhibitor (Bafilomycin A1, BFA, 1 μM) or NH4Cl (20 mM) to alkalinize endosomes. Images were obtained with a Leica SP8 confocal microscope using HCX PL APO 63× (NA […]) oil objective. Images were taken every 10 see for 30 min, where the first 5 readings correspond to baseline images prior the addition of DIPMA-CO nanoparticles (20 μg/mL). All images were analyzed using Fiji.

[1] = tested on: SNS-evoked mechanical hyperalgesia in rats; test: Sural nerve spared (SNS) mechanical hyperalgesia, Randall-Selitto; format: in vivo
[2] = tested on: C-fiber reflex and wind-up in SNS rats; test: C-fiber-evoked nociceptive reflex and wind-up in SNS rats; format: in vivo; details: 10 μl, 1 μM intrathecal
[3] = tested on: NK1R-positive lamina I neurons; test: Cell-attached patch clamp of SP-induced excitation in rat spinal cord slices; format: cell-based; details: 100 nM AP preincubation, washed; SP 1 μM, 2 min
Procedure: The firing time was determined as the duration of the response to last action potential.

[4] = tested on: capsaicin-evoked mechanical allodynia in mice; test: Capsaicin-evoked mechanical allodynia, von Frey filaments; format: in vivo; details: for Time at which the effect is lost / not detected: i.t.
Procedure: However, the same behaviour on the decay of the effect was observed.
AP, nanoparticles or vehicle (5 μl) was administered by intrathecal injection to mice 30 min before intraplantar injection to the hind paw of capsaicin, which activates TRPV1 to cause acute allodynia and neurogenic inflammation. Withdrawal responses to stimulation of the plantar surface of the injected hindpaw with calibrated von Frey filaments (VFF) were measured before and after capsaicin. In mice receiving vehicle or DIPMA-empty nanoparticles, capsaicin decreased the VFF threshold from 0.5-4 h, consistent with mechanical allodynia, which returned to baseline after 24 h (FIG. 18B).
Drug administration. Mice. […] Rats. […] Treatments were administered 10 days after sural nerve transection.
Acute pain. Capsaicin (CAP, 5 μg) or vehicle (0.9% NaCl) was administered by subcutaneous intraplantar (i.pl.) injection (10 μL) into the left hindpaw of sedated mice (2% isoflurane) 30 min after i.t. injection of drugs.
Mechanical allodynia and hyperalgesia. Mechanical nociception was assessed by measuring withdrawal thresholds to stimulation of the plantar surfaces of the ipsilateral and contralateral hindpaws with calibrated von Frey filaments (VFF). Prior to experiments, mice were acclimatized to the experimental apparatus and environment for 2 h on 2 successive days. VFF withdrawal thresholds were measured in triplicate to establish a baseline for each mouse. For the CAP model, VFF withdrawal thresholds were measured at 30 min intervals for the first 2 h after i.t. drug administration, then at 60 min intervals for the next 2 h, and finally after 24 h. For the CFA model, VFF withdrawal thresholds were measured every 30 min for the first 3 h after i.t. drug administration, then at 60 min intervals for the next 5 h, and finally after 24 h. Results were normalized to the baseline withdrawal thresholds of each mouse.

[5] = tested on: chronic pain model in rats; test: Chronic pain model by ligation of the sciatic nerve, Randall-Selitto (Example 10); format: in vivo; details: 300 nM aprepitant, i.t. 10 μL
Source text: The chronic pain model was induced by ligation of the sciatic nerve, allowing sensitisation to pain (allodynia, hyperalgesia) to develop for 10 days. Sensitisation was confirmed measuring baseline (pre-surgery) and post-surgery paw withdrawal using a Randall-Selitto electronic algesimeter (Eva Santos-Nogueira, et al. J Neurotrauma. 2012, 29(5): 898-904). […] As is evident, aprepitant-loaded nanoparticles provide greater analgesia and longer lasting effects.

[6] = tested on: CFA-evoked mechanical hyperalgesia in mice; test: Complete Freund's adjuvant-evoked mechanical hyperalgesia, von Frey filaments; format: in vivo; details: for Inhibition of CFA hyperalgesia at 1.5 h: 5 μl i.t., 48 h after CFA
[7] = tested on: CFA-induced mechanical hyperalgesia; details: Proc. Natl. Acad. Sci. USA. 114(46):12309-12314; cited from earlier work

CO/C1=C\C(C)=C\[C@@H](C)[C@@H](O)[C@@H](C)C/C(C)=C/C=C/[C@H](OC)[C@@H]([C@@H](C)[C@@H](O)[C@H](C)[C@@]2(O)C[C@@H](O)[C@H](C)[C@@H](C(C)C)O2)OC1=O [Bafilomycin A1]
Effect of inhibitor on cellular fluorescence of DIPMA-CO nanoparticles (HEK-293 cells): suppressed fluorescence
Effect of inhibitor on cellular fluorescence of DIPMA-CO nanoparticles (HEK-293 cells; listed as Bafilomycin A): inhibited the accumulation of Coumarin 153 cellular fluorescence

O=C(N/N=C/c1cc(O)c(O)cc1O)c1cc2ccccc2cc1O [Dyngo4a]
Effect of inhibitor on cellular fluorescence of DIPMA-CO nanoparticles (HEK-293 cells): inhibited the accumulation of Coumarin 153 cellular fluorescence

Cl.N [NH4Cl]
Effect of inhibitor on cellular fluorescence of DIPMA-CO nanoparticles (HEK-293 cells): suppressed fluorescence

O=C1NC(=NS(=O)(=O)c2cccc3ccccc23)S/C1=C\c1ccc(Br)cc1 [PitStop2]
Effect of inhibitor on cellular fluorescence of DIPMA-CO nanoparticles (HEK-293 cells): inhibited the accumulation of Coumarin 153 cellular fluorescence

C[C@@H](O[C@H]1OCCN(Cc2nc(=O)[nH][nH]2)[C@H]1c1ccc(F)cc1)c1cc(C(F)(F)F)cc(C(F)(F)F)c1 [aprepitant, 5-([(2R,3S)-2-((R)-1-[3,5-Bis(trifluoromethyl)phenyl]ethoxy)-3-(4-fluorophenyl)morpholino]methyl)-1H-1,2,4-triazol-3(2H)-one]
Effect on withdrawal threshold ([1]; 10 μl i.t., 100 nM, 10 days after SNS): did not modify withdrawal threshold
Maximum inhibition of hyperalgesia, after 1 h ([1]; 10 μl i.t., 300 nM): 40±2%
Time of return to baseline ([1]; i.t., 300 nM): 2.5 h
Inhibition of hyperalgesia after 1 h ([1]; i.t., 1 μM): 75±4%
Time of return to baseline ([1]; i.t., 1 μM): 3 h
Effect on C-reflex [2]: decreased the C-reflex, but only at 30 min
Effect on wind-up [2]: did not affect wind-up
Effect on SP-induced firing of spinal neurons [3]: did not affect the onset, rate or duration of SP-induced firing
Inhibition of capsaicin-evoked allodynia at 1 h ([4]; 5 μl i.t., 100 nM AP, 30 min before capsaicin): 16±4%
Time at which the effect is lost / not detected ([4]; 100 nM AP): 3 h
Time at which the effect is lost / not detected ([4]; 100 nM AP, listed as AP): 1.5 h
Analgesia on the first hour ([4]; single i.t. dose 30 minutes prior to capsaicin (Example 9)): 30%
Duration of effect [5]: 2 h
Improvement in pressure, Randall-Selitto [5]: 20 g
Pain recovery [5]: ~25%
Inhibition of CFA hyperalgesia at 1.5 h ([6]; 100 nM AP): 30±6%
Inhibition of CFA hyperalgesia at 1.5 h ([6]; 300 nM AP): 47±3%
Duration of reversal of hyperalgesia ([6]; free AP 100 or 300 nM, DIPMA-AP 100 nM AP, i.t.): 2 to 3 h

CN1CC[C@]23c4c5ccc(O)c4O[C@H]2[C@@H](O)C=C[C@H]3[C@H]1C5 [morphine]
Duration of full reversal of hyperalgesia ([1]; morphine): 2 h
Time after which the effect was absent ([1]; morphine): 2.5 h
Effect on mechanical hyperalgesia after 0.5 h ([6]; 3 mg/kg, i.p.): fully reversed the mechanical hyperalgesia
Time at which the effect waned to baseline ([6]; 3 mg/kg, i.p.): 3 h

CGRP8-37-Chol: cholestanol conjugate of CGRP8-37 (VTHRLAGLLSRSGGVVKNNFVPTNVGSKAF; ends and bridges not checked; also: cholestanol conjugate; UniProt P06881 90-119, looked up, fragment)
Reversal of mechanical hyperalgesia [7]: ~20%

CGRP8-37: a membrane-impermeant CLR antagonist (VTHRLAGLLSRSGGVVKNNFVPTNVGSKAF; ends and bridges not checked; UniProt P06881 90-119, looked up, fragment)
Reversal of mechanical hyperalgesia [7]: not
